# Target: SMYD2 (Homo sapiens (Human), UniProt Q9NRG4)
# Experiment: SMYD2 TR-FRET inhibition assay (p53 peptide + SAM, SAH detection)
# Type: biochemical
# Conditions: SMYD2 enzyme, p53 peptide and SAM substrates, overnight at room temperature; Tb chelate mAb/OG-SAH probe detection; read-out: TRFRET IC50
# Method: 5 microliters of a 2×SMYD2 enzyme solution (20 nM, […] in assay buffer) were added to each well. To the control wells was also added 5 microliters of assay buffer. […] The wells were incubated at room temperature for 30 minutes.
# Into the wells of the counter screen plate was added 5 microliters 2×SAH (300 nM, S-adenosyl homocysteine (SAH)), except the control wells.
# Into all wells was added 5 microliters of 2×SAM. The plates were covered and incubated overnight at room temperature. […] Analysis of the wells was by the Laser Lentha Low Volume Envision Protocol (emission wavelength of 520 nm; laser excitation wavelength of 337 nm).
# SMYD2, sequence (Q9NRG4 whole entry): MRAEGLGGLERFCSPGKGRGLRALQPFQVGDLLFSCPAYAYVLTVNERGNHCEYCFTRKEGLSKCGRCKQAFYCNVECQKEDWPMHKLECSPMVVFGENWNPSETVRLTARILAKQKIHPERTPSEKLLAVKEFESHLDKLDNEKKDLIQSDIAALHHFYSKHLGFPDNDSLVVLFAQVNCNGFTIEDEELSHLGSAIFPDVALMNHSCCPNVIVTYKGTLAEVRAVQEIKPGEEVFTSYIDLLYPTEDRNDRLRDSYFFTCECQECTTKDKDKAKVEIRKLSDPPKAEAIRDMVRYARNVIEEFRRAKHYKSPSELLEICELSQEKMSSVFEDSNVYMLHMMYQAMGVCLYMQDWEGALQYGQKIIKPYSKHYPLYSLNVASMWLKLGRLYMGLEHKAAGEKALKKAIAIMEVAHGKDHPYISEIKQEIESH
row,Compound,IC50
1,"O=C1COc2c(cccc2C(O)CNCCN(C(=O)CCNCCc2ccc(Cl)c(Cl)c2)C2CCCCC2)N1 (racemic) [Example 1, N-cyclohexyl-3-((3,4-dichlorophenethyl)amino)-N-(2-((2-hydroxy-2-(3-oxo-3,4-dihydro-2H-benzo[b][1,4]oxazin-8-yl)ethyl)amino)ethyl)-propanamide]",0.065 µM
2,"O=C1COc2c(cccc2[C@H](O)CNCCN(C(=O)CCNCCc2ccc(Cl)c(Cl)c2)C2CCCCC2)N1 [Example 1a, (S)-N-cyclohexyl-3-((3,4-dichlorophenethyl)amino)-N-(2-((2-hydroxy-2-(3-oxo-3,4-dihydro-2H-benzo[b][1,4]oxazin-8-yl)ethyl)amino)-ethyl)-propanamide]",0.023 µM
3,"O=C1COc2c(cccc2[C@@H](O)CNCCN(C(=O)CCNCCc2ccc(Cl)c(Cl)c2)C2CCCCC2)N1 [Example 1b, (R)-N-cyclohexyl-3-((3,4-dichlorophenethyl)amino)-N-(2-((2-hydroxy-2-(3-oxo-3,4-dihydro-2H-benzo[b][1,4]oxazin-8-yl)ethyl)amino)-ethyl)-propanamide]",0.138 µM
4,O=C1COc2c(CCNCCN(C(=O)CCNCc3ccc(Cl)c(Cl)c3)C3CCCCC3)ccc(O)c2N1 [Example 2],2.03 µM
5,"O=C1COc2c(CCNCCN(C(=O)CCNCCc3ccccc3)C3CCCC3)ccc(O)c2N1 [Example 3, N-cyclopentyl-N-(2-((2-(5-hydroxy-3-oxo-3,4-dihydro-2H-benzo[b][1,4]oxazin-8-yl)ethyl)amino)ethyl)-3-(phenethylamino)-propanamide]",3.74 µM
6,"O=C1COc2c(CCNCCN(C(=O)CCNCCc3ccc(Cl)c(Cl)c3)C3CCCC3)ccc(O)c2N1 [Example 4, N-cyclopentyl-3-((3,4-dichlorophenethyl)amino)-N-(2-((2-(5-hydroxy-3-oxo-3,4-dihydro-2H-benzo[b][1,4]oxazin-8-yl)ethyl)amino)-ethyl)-propanamide]",10 µM
7,"O=C(CCNCCc1ccc(Cl)c(Cl)c1)N(CCNCCCN1CCCCC1)C1CCCCC1 [Example 5, N-cyclohexyl-3-((3,4-dichlorophenethyl)amino)-N-(2-((3-(piperidin-1-yl)propyl)amino)ethyl)propanamide]",11.2 µM
8,"O=C(CCNCCc1ccc(Cl)c(Cl)c1)N(CCNCCN1CCCC1)C1CCCCC1 [Example 6, N-cyclohexyl-3-((3,4-dichlorophenethyl)amino)-N-(2-((2-(pyrrolidin-1-yl)ethyl)amino)ethyl)propanamide]",12.1 µM
9,"CC(NCCc1ccc(Cl)c(Cl)c1)C(=O)N(CCNCc1ccc(C#N)cc1)C1CCCCC1 (stereo not drawn) [Example 7, N-(2-((4-cyanobenzyl)amino)ethyl)-N-cyclohexyl-((3,4-dichlorophenethyl)amino)propanamide]",16 µM
10,"CC1CNc2c(CC(C)(C)C)c(NCCN(C(=O)CCNCCc3ccc(Cl)c(Cl)c3)C3CCCCC3)nn2C1 (stereo not drawn) [Example 8, N-cyclohexyl-3-((3,4-dichlorophenethyl)amino)-N-(2-((6-methyl-3-neopentyl-4,5,6,7-tetrahydropyrazolo[1,5-a]pyrimidin-2-yl)-amino)ethyl)-propanamide]",32.8 µM
11,"O=C(CCNCCc1ccccc1)N(CCN1CC[C@H]1COc1cccnc1)C1CCCCC1 [Example 9, (S)-N-cyclohexyl-3-(phenethylamino)-N-(2-(2-((pyridin-3-yloxy)methyl)azetidin-1-yl)ethyl)propanamide]",> 50 µM
12,"COCCC(=O)N(CCNCCc1ccc(O)c2c1OCC(=O)N2)C1CCCCC1 [Example 10, N-cyclohexyl-N-(2-((2-(5-hydroxy-3-oxo-3,4-dihydro-2H-benzo[b][1,4]oxazin-8-yl)ethyl)amino)ethyl)-3-methoxypropanamide]",> 50 µM
13,"O=C1COc2c(CCNCCN(C(=O)CCNCCc3ccccc3)C3CCCCC3)ccc(O)c2N1 [Example 11, N-cyclohexyl-N-(2-((2-(5-hydroxy-3-oxo-3,4-dihydro-2H-benzo[b][1,4]oxazin-8-yl)ethyl)amino)ethyl)-3-(phenethylamino)-propanamide]",> 50 µM
14,"O=C(CCNCCc1ccc(Cl)c(Cl)c1)N(CCN1CCN(c2cccc3c2CCN3)CC1)C1CCCCC1 [Example 12, N-cyclohexyl-3-((3,4-dichlorophenethyl)amino)-N-(2-(4-(indolin-4-yl)piperazin-1-yl)ethyl)propanamide]",9.83 µM
15,"O=C(CCNCCc1ccc(Cl)c(Cl)c1)N(CCNCCCN1CCCC1)C1CCCCC1 [Example 13, N-cyclohexyl-3-((3,4-dichlorophenethyl)amino)-N-(2-((3-(pyrrolidin-1-yl)propyl)amino)ethyl)propanamide]",7.42 µM
16,"O=C1COc2c(CCNCCN(C(=O)CCNCCc3ccccc3)C3CCC3)ccc(O)c2N1 [Example 14, N-cyclobutyl-N-(2-((2-(5-hydroxy-3-oxo-3,4-dihydro-2H-benzo[b][1,4]oxazin-8-yl)ethyl)amino)ethyl)-3-(phenethylamino)-propanamide]",> 50 µM
17,"O=C1COc2c(CCNCCN(C(=O)CCNCCc3ccc(Cl)c(Cl)c3)C3CCC3)ccc(O)c2N1 [Example 15, N-cyclobutyl-3-((3,4-dichlorophenethyl)amino)-N-(2-((2-(5-hydroxy-3-oxo-3,4-dihydro-2H-benzo[b][1,4]oxazin-8-yl)ethyl)amino)-ethyl)-propanamide]",3.79 µM
18,"Cc1cn2ccccc2c1CCNCCN(C(=O)CCNCCc1cccc(Cl)c1Cl)C1CCCCC1 [Example 16, N-cyclohexyl-3-((2,3-dichlorophenethyl)amino)-N-(2-((2-(2-methylindolizin-1-yl)ethyl)amino)ethyl)propanamide]",3.44 µM

# From US9598381B2, “SMYD2 inhibitors” (AbbVie Inc., priority 2014, dated 2017)
